Experimental findings from ChEMBL document CHEMBL3045964, “Synthesis, cytotoxicity, and structureactivity insight of NH- and N-methyl-3,5-bis-(arylidenyl)-4-piperidones” (Med Chem Res, 2013) are described below.

What is called IC50 is the concentration at which inhibition is half-maximal.

A value given as a limit tells only on which side of the number the result lay.

One assay relates to L1210. Description: Cytotoxicity against Mus musculus (mouse) L1210 cells assessed as growth inhibition after 72 hr by MTT assay. Format: functional, cell-based. The settings on record: L1210, 72 h. Background: Formazan colour is commonly taken as a measure of viable cells.
The next assay has as its system B16. In words: Cytotoxicity against Mus musculus (mouse) B16 cells assessed as growth inhibition after 72 hr by MTT assay. Format: functional, cell-based. Particulars: B16, 72 h.

For the compound `O=C1/C(=C/c2ccc(F)cc2)CNC/C1=C\c1ccc(F)cc1`, the IC50 with L1210 was 24.5 µM; in the assay with B16, 3.8 µM.

`CCN(CC)c1ccc(/C=C2\CNC/C(=C\c3ccc(N(CC)CC)cc3)C2=O)cc1`: the results for the half-maximal inhibitory concentration (IC50) with L1210 and in the assay on B16 were 35 µM and 1.5 µM, respectively.

As for `COc1cc(OC)c(/C=C2\CNC/C(=C\c3c(OC)cc(OC)cc3OC)C2=O)c(OC)c1`, the IC50 in the assay with L1210 came to 1.1 µM; in the assay with B16 it was 0.2 µM.

`O=C1/C(=C/c2ccc3c(c2)OCO3)CNC/C1=C\c1ccc2c(c1)OCO2`: the IC50 was 12.5 µM in the assay on L1210 and 25 µM in the assay with B16.

Consider `COc1ccc(OC)c(/C=C2\CNC/C(=C\c3cc(OC)ccc3OC)C2=O)c1`, for which the IC50 in the assay with L1210 and in the assay with B16 was 0.3 µM throughout.

For `CCN(CC)c1ccc2cc(/C=C3\CNC/C(=C\c4cc5ccc(N(CC)CC)cc5oc4=O)C3=O)c(=O)oc2c1`, the figures for the IC50 in the assay with L1210 and in the assay on B16 were 29 µM and 44 µM, respectively.

Turning to `O=C1/C(=C/c2ccc(O)c([N+](=O)[O-])c2)CNC/C1=C\c1ccc(O)c([N+](=O)[O-])c1`, the IC50 with L1210 was 2 µM; with B16 it was 7.3 µM.

For `COc1cc(/C=C2\CNC/C(=C\c3cc(OC)cc(OC)c3)C2=O)cc(OC)c1`, the IC50 with L1210 and with B16 was 0.3 µM throughout.

As for `COc1cccc(/C=C2\CNC/C(=C\c3cccc(OC)c3)C2=O)c1`, the figures for the IC50 with L1210 and in the assay on B16 were 4.3 µM and 1.9 µM, respectively.

In the case of `O=C1/C(=C/c2ccc(Cl)cc2)CNC/C1=C\c1ccc(Cl)cc1`, the results for the IC50 in the assay with L1210 and in the assay with B16 were 7 µM and 4 µM, respectively.

For the compound `COc1ccc(/C=C2\CNC/C(=C\c3ccc(OC)nc3)C2=O)cn1`, the values for the IC50 with L1210 and in the assay on B16 were 2.8 µM and 3.6 µM, respectively.

For `CN1C/C(=C\c2cccc(Br)c2)C(=O)/C(=C/c2cccc(Br)c2)C1`, the IC50 stood at 5 µM in the assay on L1210 and 2.1 µM in the assay with B16.

`CN1C/C(=C\c2ccc(Cl)cc2)C(=O)/C(=C/c2ccc(Cl)cc2)C1`: the half-inhibitory concentration (IC50) was determined as 10 µM in the assay on L1210 and 3.8 µM in the assay with B16.

In the case of `CN1C/C(=C\c2ccc(F)cc2)C(=O)/C(=C/c2ccc(F)cc2)C1`, the IC50 came out at 31 µM in the assay on L1210 and 6.5 µM in the assay with B16.

As to `O=C1/C(=C/c2ccc(Cl)c(Cl)c2)CNC/C1=C\c1ccc(Cl)c(Cl)c1`, the IC50 in the assay with L1210 amounted to 3.6 µM; in the assay on B16 it was 4.1 µM.

Consider `O=C1/C(=C/c2cccc(O)c2)CNC/C1=C\c1cccc(O)c1`, for which the half-inhibitory concentration (IC50) with L1210 was determined as 2.3 µM; in the assay on B16 it was 0.7 µM.

For the compound `CCN(CC)c1ccc(/C=C2\CN(C)C/C(=C\c3ccc(N(CC)CC)cc3)C2=O)cc1`, the IC50 in the assay with L1210 was 3.3 µM; with B16, 33 µM.

As for `CN(C)c1ccc(/C=C2\CNC/C(=C\c3ccc(N(C)C)cc3)C2=O)cc1`, the values for the IC50 with L1210 and with B16 were 42.5 µM and 32.5 µM, respectively.

On to `O=C1/C(=C/c2cccc(Br)c2)CNC/C1=C\c1cccc(Br)c1`, for which the IC50 was over 100 µM with L1210 and 2.1 µM in the assay on B16.

Take `CN1C/C(=C\c2ccc(N(C)C)cc2)C(=O)/C(=C/c2ccc(N(C)C)cc2)C1`: the IC50 in the assay on L1210 was 28.5 µM; in the assay on B16, 23.5 µM.
